The assay has as its target T1, cloned human CRTH2 receptor (Homo sapiens, UniProt Q9Y5Y4).
T1 construct: purchased Biosignal; host or cells: HEK-293 cells stably expressing human CRTH2 and G-alpha-16 (membranes)
T1 sequence (Q9Y5Y4 1-395): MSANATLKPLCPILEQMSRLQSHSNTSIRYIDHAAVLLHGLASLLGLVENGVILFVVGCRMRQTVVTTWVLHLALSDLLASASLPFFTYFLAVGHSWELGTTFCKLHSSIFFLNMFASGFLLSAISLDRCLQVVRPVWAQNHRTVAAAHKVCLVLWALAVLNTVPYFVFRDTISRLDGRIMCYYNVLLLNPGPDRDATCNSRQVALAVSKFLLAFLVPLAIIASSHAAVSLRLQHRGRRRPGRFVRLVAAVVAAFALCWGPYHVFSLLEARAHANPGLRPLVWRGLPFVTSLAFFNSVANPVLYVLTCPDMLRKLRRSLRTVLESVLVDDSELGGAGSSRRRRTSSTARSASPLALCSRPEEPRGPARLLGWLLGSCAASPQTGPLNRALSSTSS
As to the kind of experiment: Radioligand membrane binding assay: inhibition of [3H] PGD2 binding to CRTH2 (Scintillation Proximity Assay). Particulars: inhibition of [3H] PGD2 binding to membranes of HEK-293 cells stably expressing human CRTH2; SPA; 10 point curve from 10 μM; room temperature, approximately 2 hours. The procedure:
This radioligand membrane binding assay evaluates the ability of compounds to inhibit [^3H] Prostaglandin D2 (PGD2) binding to the cloned human CRTH2 receptor stably expressed in HEK-293 cells (expressing human CRTh2 receptor and α subunit or the heteronimeric G protein 16 were prepared by Biosignal Company) using Scintillation Proximity Assay.
A binding buffer containing 50 mM Tris-HCl (pH 7.5), 5 mM MgCl2 and 1 mM EDTA was prepared immediately prior to performing the assay. A bead/membrane solution at twice the final assay concentration comprising membranes (membranes bought from Biosignal) from the HEK-293 cells cloned to express CRTH2 receptor bound to and [3H] PGD2 at twotimes the final assay concentration were prepared and stored on ice before adding to wells. Cold PGD2 at twenty times the final assay concentration was prepared and stored on ice before adding to wells defining non-specific binding (NSB) corning plates #3653 were used for this assay.
10 mM stock concentrations of compounds in 100% DMSO were prepared and stored at room temperature. A 10 point concentration response curve was then constructed for each compound, starting at 10 μM (final assay concentration). The compounds were prepared at 40 times final assay concentrations with nine consequent-3-fold dilutions.
0.1 μl of each concentration of compound were added to the appropriate well of the 384 plate and 2 μl of cold PGD2 was added into the wells defining NSB. 20 μl of [^3H] PGD2 and then 20 μl of 2× of bead/membrane solution were then added to each well.
The plates were allowed to incubate at room temperature for approximately 2 hours and then counted on Packard Topcount using SPA tritium protocol for 1 minute/well.
The percent inhibition of PGD2 binding (PGD2 used at the KD value or lower) to the HEK-293 cell membranes was determined, the assay was always run as duplicate for n=1 for a total of n=2.

On to `CC(=O)N(c1ccccc1)[C@H]1C[C@@H](C)N(C(=O)c2ccc(C(C)(C)C)cc2)c2ccccc21` [Compound A-8, (2R,4S)-cis-N-[1-(4-tert-butyl-benzoyl)-2-methyl-1,2,3,4-tetrahydro-quinolin-4-yl]-N-phenyl-acetamide], for which the Ki was under 60 µM.
The value for `C[C@H]1C[C@@H](N(C(=O)CCc2ccccc2)c2ccccc2)c2ccccc2N1C(=O)c1ccc(F)cc1` (racemic) [Compound A-73, (±)-Cis-N-[1-(4-fluoro-benzoyl)-2-methyl-1,2,3,4-tetrahydro-quinolin-4-yl]-3,N-diphenyl-propionamide] was under 10 µM; that for `CC(=O)N(c1ccc(Cl)cc1)[C@H]1C[C@@H](C)N(C(=O)c2ccc(C)s2)c2ccccc21` [Compound B-28, (2R,4S)-cis-N-(4-Chloro-phenyl)-N-[2-methyl-1-(5-methyl-thiophene-2-carbonyl)-1,2,3,4-tetrahydro-quinolin-4-yl]-acetamide] was under 10 µM.
The value for `Cc1ccc(C(=O)N2c3ccccc3[C@@H](N(C(=O)C(C)C)c3ccc(Cl)cc3)C[C@H]2C)s1` [Compound B-11, (2R,4S)-cis-N-(4-Chloro-phenyl)-N-[2-methyl-1-(5-methyl-thiophene-2-carbonyl)-1,2,3,4-tetrahydro-quinolin-4-yl]-isobutyramide] was under 10 µM; that for `CC(=O)N(c1ccccc1)[C@H]1C[C@@H](C)N(C(=O)c2ccc(F)cc2)c2ccccc21` [Compound A-58] was under 60 µM.
`CCC(=O)OC[C@H]1C[C@@H](N(C(=O)CC)c2ccc(Cl)cc2)c2ccccc2N1C(=O)c1ccc(F)cc1` (racemic) [Compound B-104, (±)-Cis-propionic acid 4-[(4-chloro-phenyl)-propionyl-amino]-1-(4-fluoro-benzoyl)-1,2,3,4-tetrahydro-quinolin-2-ylmethyl ester] displayed a Ki of under 10 µM.
In the case of `COc1ccc(C(=O)N2c3cc(C)ccc3[C@@H](N(C(C)=O)c3ccc(Cl)cc3)C[C@H]2C)cc1` [Compound B-58, (2R,4S)-cis-N-(4-chloro-phenyl)-N-[1-(4-methoxy-benzoyl)-2,7-dimethyl-1,2,3,4-tetrahydro-quinolin-4-yl]-acetamide], the Ki is under 10 µM.
The same measure for `COc1ccc(C(=O)N2c3ccccc3[C@H](N(C(C)=O)c3ccc(C(=O)O)cc3)C[C@@H]2C)cc1` [Compound C-37, (2S,4R)-4-{Acetyl-[1-(4-methoxy-benzoyl)-2-methyl-1,2,3,4-tetrahydro-quinolin-4-yl]-amino}-benzoic acid]: under 10 µM.
For `CC(=O)N(c1ccccc1)[C@@H]1C[C@H](C)N(C(=O)c2c(F)cc(F)cc2F)c2ccccc21` (racemic) [Compound A-24, (±)-Cis-N-[2-methyl-1-(2,4,6-trifluoro-benzoyl)-1,2,3,4-tetrahydro-quinolin-4-yl]-N-phenyl-acetamide], the Ki is under 10 µM.
With `CCOC(=O)C(C)(C)Oc1ccc2c(c1)[C@H](N(C(=O)CC)c1ccc(Cl)cc1)C[C@H](C)N2C(=O)c1ccc(F)cc1` (racemic) [Compound B-64, (±)-Cis-2-[4-[(4-chloro-phenyl)-propionyl-amino]-1-(4-fluoro-benzoyl)-2-methyl-1,2,3,4-tetrahydro-quinolin-6-yloxy]-2-methyl-propionic acid ethyl ester], the Ki is under 10 µM.
The value for `CCC(=O)N(c1ccccc1)C1CC(C)N(C(=O)C2CN(CC)CCO2)c2ccccc21` (racemic) [Compound A-82, (±)-Cis-N-[1-(4-Ethyl-morpholine-2-carbonyl)-2-methyl-1,2,3,4-tetrahydro-quinolin-4-yl]-N-phenyl-propionamide] was under 10 µM; that for `COc1cccc(C(=O)N2c3ccccc3[C@H](N(C(=O)C3CCCCC3)c3ccccc3)C[C@@H]2C)c1` (racemic) [Compound A-54, (±)-Cis-cyclohexanecarboxylic acid [1-(3-methoxy-benzoyl)-2-methyl-1,2,3,4-tetrahydro-quinolin-4-yl]-phenylamide] was under 10 µM.
The value for `C[C@H]1C[C@@H](N(C(=O)COc2ccccc2)c2ccccc2)c2ccccc2N1C(=O)c1ccc(F)cc1` (racemic) [Compound A-72, (±)-Cis-N-[1-(4-fluoro-benzoyl)-2-methyl-1,2,3,4-tetrahydro-quinolin-4-yl]-2-phenoxy-N-phenyl-acetamide] was under 10 µM; that for `CCC(=O)N(c1ccc(Cl)cc1)[C@H]1C[C@@H](C)N(C(=O)c2ccc(OC)cc2)c2ccccc21` [Compound B-18, (2R,4S)-cis-N-(4-chloro-phenyl)-N-[1-(4-methoxy-benzoyl)-2-methyl-1,2,3,4-tetrahydro-quinolin-4-yl]-propionamide] was under 10 µM.
The same measure for `CCC(=O)N(c1ccccc1)[C@@H]1C[C@H](C)N(C(=O)c2ccc(-c3ccc(C(F)(F)F)cc3Cl)o2)c2ccccc21` (racemic) [Compound A-143, (±)-Cis-N-{1-[5-(2-chloro-4-trifluoromethyl-phenyl)-furan-2-carbonyl]-2-methyl-1,2,3,4-tetrahydro-quinolin-4-yl}-N-phenyl-propionamide]: under 10 µM.
Compound `COc1ccc(C(=O)N2c3ccccc3[C@@H](N(C(C)=O)c3ccc(Cl)cc3)C[C@H]2C)cc1` [Compound B-34, (2R,4S)-cis-N-(4-Chloro-phenyl)-N-[1-(4-methoxy-benzoyl)-2-methyl-1,2,3,4-tetrahydro-quinolin-4-yl]-acetamide] displayed a Ki of under 10 µM.
The value for `CCC(=O)N(c1ccc(Cl)cc1)[C@@H]1C[C@H](C)N(C(=O)c2ccc(F)cc2)c2ccc(OC(C)(C)C(=O)O)cc21` (racemic) [Compound B-66, (±)-Cis-2-[4-[(4-chloro-phenyl)-propionyl-amino]-1-(4-fluoro-benzoyl)-2-methyl-1,2,3,4-tetrahydro-quinolin-6-yloxy]-2-methyl-propionic acid] was under 10 µM.
The compound `COc1cccc(C(=O)N2c3ccccc3[C@@H](N(C(C)=O)c3ccccc3)C[C@@H]2C)c1` (racemic) [Compound A-124, (±)-Trans-N-[1-(3-methoxy-benzoyl)-2-methyl-1,2,3,4-tetrahydro-quinolin-4-yl]-N-phenyl-acetamide] yielded a Ki of under 60 µM.
Regarding `CCC(=O)N(c1ccc(Cl)cc1)[C@@H]1C[C@H](Cc2ccccc2)N(C(=O)c2ccc(F)cc2)c2ccccc21` (racemic) [Compound B-112, (±)-Cis-N-[2-benzyl-1-(4-fluoro-benzoyl)-1,2,3,4-tetrahydro-quinolin-4-yl]-N-(4-chloro-phenyl)-propionamide], the Ki is under 10 µM.
The value for `CCC(=O)N(c1ccc(Cl)cc1)[C@@H]1C[C@H](CO)N(C(=O)c2ccc(F)cc2)c2ccccc21` (racemic) [Compound B-105, (±)-Cis-N-(4-chloro-phenyl)-N-[1-(4-fluoro-benzoyl)-2-hydroxymethyl-1,2,3,4-tetrahydro-quinolin-4-yl]-propionamide] was under 10 µM; that for `CCC[C@H]1C[C@@H](N(C(=O)CC)c2ccc(Cl)cc2)c2ccccc2N1C(=O)c1ccc(F)cc1` (racemic) [Compound B-103, (±)-Cis-N-(4-chloro-phenyl)-N-[1-(4-fluoro-benzoyl)-2-propyl-1,2,3,4-tetrahydro-quinolin-4-yl]-propionamide] was under 10 µM; that for `CCC(=O)N(c1ccc(Cl)cc1)[C@@H]1C[C@H](CN(CC)CC)N(C(=O)c2ccc(F)cc2)c2ccccc21` (racemic) [Compound B-106, (±)-Cis-N-(4-chloro-phenyl)-N-[2-diethylaminomethyl-1-(4-fluoro-benzoyl)-1,2,3,4-tetrahydro-quinolin-4-yl]-propionamide] was under 10 µM.
`CC(=O)N(c1ccccc1)C1CC(C)N(C(=O)c2ccc(F)cc2)c2ccccc21` (stereo not shown) [Compound A-53] displayed a Ki of under 60 µM.
The same measure for `CC(=O)N(c1ccccc1)[C@@H]1C[C@H](C)N(C(=O)c2cc(C)nn2C)c2ccccc21` (racemic) [Compound A-159, (±)-Cis-N-[1-(2,5-dimethyl-2H-pyrazole-3-carbonyl)-2-methyl-1,2,3,4-tetrahydro-quinolin-4-yl]-N-phenyl-acetamide]: under 10 µM.
The same measure for `COc1cccc(C(=O)N2c3ccccc3C(N(C(C)=O)c3ccccc3)CC2(C)C)c1` (stereo not shown) [Compound F-1, N-[1-(3-Methoxy-benzoyl)-2,2-dimethyl-1,2,3,4-tetrahydro-quinolin-4-yl]-N-phenyl-acetamide]: under 60 µM.

These data come from patent US7504508B2, “PGD2 receptor antagonists for the treatment of inflammatory diseases” (Millennium Pharmaceuticals, Inc., priority 2002, dated 2009).
